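Growth conditions: 96-well plates. Treatment: test compound, 48 hours, 5 concentrations. Analysis: linear interpolation between bracketing concentrations; unreached endpoints set to highest concentration. The concentration for 50% growth inhibition is given as GI50.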 The source made the active and inactive calls. Rule as the data show it: active = GI50 up to about 1.1 µM and inactive = higher.
Columns and labels:
Assay in all cases: DTP human tumour cell line panel, 48 h
NCI-H460 = system: NCI-H460
CAKI-1 = system: CAKI-1
HOP-62 = system: HOP-62
ACHN = system: ACHN
SR = system: SR
MDA-MB-231 = system: MDA-MB-231
NCI-H522 = system: NCI-H522
Hs-578T = system: Hs-578T
PC-3 = system: PC-3
KM12 = system: KM12
MDA-N = system: MDA-N
SK-MEL-28 = system: SK-MEL-28
NCI/ADR-RES = system: NCI/ADR-RES
CCRF-CEM = system: CCRF-CEM
SK-MEL-5 = system: SK-MEL-5
OVCAR-3 = system: OVCAR-3
HL-60 = system: HL-60
SF-295 = system: SF-295
EKVX = system: EKVX
HCT-15 = system: HCT-15

SMILES | GI50 (NCI-H460) | GI50 (CAKI-1) | GI50 (HOP-62) | GI50 (ACHN) | GI50 (SR) | GI50 (MDA-MB-231) | GI50 (NCI-H522) | GI50 (Hs-578T) | GI50 (PC-3) | GI50 (KM12) | GI50 (MDA-N) | GI50 (SK-MEL-28) | GI50 (NCI/ADR-RES) | GI50 (CCRF-CEM) | GI50 (SK-MEL-5) | GI50 (OVCAR-3) | GI50 (HL-60) | GI50 (SF-295) | GI50 (EKVX) | GI50 (HCT-15)
Cc1cn(CC2(CO)CCC2)c(=O)[nH]c1=O | > 100 µM (inactive) | > 100 µM (inactive) | > 100 µM (inactive) | > 100 µM (inactive) | > 100 µM (inactive) | > 100 µM (inactive) | > 100 µM (inactive) | > 100 µM (inactive) | > 100 µM (inactive) | > 100 µM (inactive) | > 100 µM (inactive) | > 100 µM (inactive) | > 100 µM (inactive) | > 100 µM (inactive) | > 100 µM (inactive) | > 100 µM (inactive) | > 100 µM (inactive) | > 100 µM (inactive) | > 100 µM (inactive) | > 100 µM
Cc1n[nH]/c(=N\S(=O)(=O)c2ccc(/N=N/c3c(O)c(C(=O)O)cc4ccccc34)cc2)s1 | > 100 µM (inactive) | > 100 µM (inactive) | > 100 µM (inactive) | > 100 µM (inactive) | > 100 µM (inactive) | > 100 µM (inactive) | > 100 µM (inactive) | > 100 µM (inactive) | > 100 µM (inactive) | > 100 µM (inactive) | > 100 µM (inactive) | > 100 µM (inactive) | > 100 µM (inactive) | > 100 µM (inactive) | > 100 µM (inactive) | > 100 µM (inactive) | > 100 µM (inactive) | > 100 µM (inactive) | > 100 µM (inactive) | > 100 µM
CCN1CN(c2ccccc2)C2(CCN(CC(CC3OCCO3)c3ccc(F)cc3)CC2)C1=O (stereo not given) | 14.7 µM (inactive) | 3.18 µM (inactive) | 4.23 µM (inactive) | 3.73 µM (inactive) | 33 µM (inactive) | 16.1 µM (inactive) | 12.6 µM (inactive) | 29.9 µM (inactive) | 22.6 µM (inactive) | 10.7 µM (inactive) | 8.49 µM (inactive) | 19.9 µM (inactive) | 10.5 µM (inactive) | 3.65 µM (inactive) | 4.07 µM (inactive) | 18.8 µM (inactive) | 17.7 µM (inactive) | 5.69 µM (inactive) | 6.7 µM (inactive) | 16.3 µM
COC1=CC(=O)N(C)C(O)C1(C#N)OC1OC(CO)C(O)C(O)C1O (stereo not given) | > 100 µM (inactive) | > 100 µM (inactive) | > 100 µM (inactive) | > 100 µM (inactive) | > 100 µM (inactive) | > 100 µM (inactive) | > 100 µM (inactive) | > 100 µM (inactive) | > 100 µM (inactive) | > 100 µM (inactive) | > 100 µM (inactive) | > 100 µM (inactive) | > 100 µM (inactive) | > 10 µM (inactive) | > 100 µM (inactive) | > 100 µM (inactive) | > 100 µM (inactive) | > 100 µM (inactive) | > 100 µM (inactive) | > 100 µM
Cc1cccc(NC(=O)CCl)c1 | > 10 µM (inactive) | > 10 µM (inactive) | > 10 µM (inactive) | > 10 µM (inactive) | 9.93 µM (inactive) | 5.93 µM (inactive) | 1.95 µM (inactive) | > 10 µM (inactive) | > 10 µM (inactive) | > 10 µM (inactive) | > 10 µM (inactive) | > 10 µM (inactive) | > 10 µM (inactive) | 2.52 µM (inactive) | 7.71 µM (inactive) | 6.4 µM (inactive) | 3.56 µM (inactive) | > 10 µM (inactive) | > 10 µM (inactive) | > 10 µM
C/C(=C\c1csc(C)n1)[C@@H]1C[C@@H]2O[C@@H]2CCC[C@H](C)[C@H](O)[C@@H](C)C(=O)C(C)(C)[C@@H](O)CC(=O)O1.C/C(=C\c1csc(C)n1)[C@@H]1C[C@@H]2O[C@]2(C)CCC[C@H](C)[C@H](O)[C@@H](C)C(=O)C(C)(C)[C@@H](O)CC(=O)O1 | 0.00129 µM (active) | 0.0101 µM (active) | 0.0258 µM (active) | 0.0179 µM (active) | 0.00397 µM (active) | 0.00893 µM (active) | 0.00076 µM (active) | 0.00378 µM (active) | 0.00469 µM (active) | 0.00265 µM (active) | 0.000326 µM (active) | 0.00475 µM (active) | 0.0191 µM (active) | 0.0478 µM (active) | 0.00408 µM (active) | 0.00333 µM (active) | 0.00475 µM (active) | 0.00567 µM (active) | 0.0252 µM (active) | 0.00218 µM
CC(=O)OC/C=C(/C=C/CNC1CCCCC1)OC(C)=O | 24.1 µM (inactive) | 13.8 µM (inactive) | 16.5 µM (inactive) | 16.4 µM (inactive) | 10.7 µM (inactive) | 14.3 µM (inactive) | 21.4 µM (inactive) | 36.3 µM (inactive) | 17.3 µM (inactive) | 15.5 µM (inactive) | 18 µM (inactive) | 16.8 µM (inactive) | 19.6 µM (inactive) | 4.34 µM (inactive) | 17.9 µM (inactive) | 17.4 µM (inactive) | > 10 µM (inactive) | 18.1 µM (inactive) | 16.5 µM (inactive) | 19.2 µM

Source: ChEMBL document CHEMBL1201862, “PubChem BioAssay data set” (2004)
